Data published in patent US20090203050A1 (The Regents of the University of California, priority 2005, published 2009).

B1: TRAIL: tumor necrosis factor (TNF)-related apoptosis-inducing ligand (protein, UniProt P50591 1-281, looked up)
Tumor necrosis factor ligand …: MAMMEVQGGPSLGQTCVLIVIFTVLLQSLCVAVTYVYFTNELKQMQDKYSKSGIACFLKEDDSYWDPNDEESMNSPCWQVKWQLRQLVRKMILRTSEETISTVQEKQQNISPLVRERGPQRVAAHITGTRGRSNTLSSPNSKNEKALGRKINSWESSRSGHSFLSNLHLRNGELVIHEKGFYYIYSQTYFRFQEEIKENTKNDKQMVQYIYKYTSYPDPILLMKSARNSCWSKDAEYGLYSIYQGGIFELKENDRIFVSVTNEHLIDMDHEASFFGAFLVG

What was measured:
[1] = system: RR clones; assay: DNA fragmentation apoptosis assay, RR clones (pooled statements); assay type: cell-based, human; details: drugs e.g. Paclitaxel, Vincristine, VP-16, CDDP, Adriamycin
Protocol: Thus, we examined if such sensitizing agents can reverse the resistance in the RR clones.
(§1) Percentage of apoptotic cells was determined by evaluation of propidium iodide (PI) stained preparations of cells using an EpicXL flow-cytometer. Cellular debris was excluded from analysis by raising the forward scatter threshold, and DNA content of the intact nuclei was recorded on a logarithmic scale (Nicoletti, I. et al., J. Immunol. Methods, 139:271-9 (1991)). Percent apoptosis is represented as percentage of hypodiploid cells accumulated at sub-G0 phase of cell cycle.
(§2) Cells were left either untreated or pre-treated with DHMEQ (36), bortezomib (Goy, A. et al., Clin. Lymphoma, 4:230-7 (2004)) and PD098059 (Alessi, D. et al., J. Biol. Chem., 270:27489-94 (1995)). Escalating concentrations of various drugs were then added and the percentage of apoptosis was measured.

[2] = system: Ramos and Daudi; details: ERK1/2 pathway inhibitors; cited from earlier work
[3] = system: Daudi-RR1; assay: DNA fragmentation (PI) apoptosis assay, Daudi-RR1; details: Daudi-RR1; for resistance of clone compared with wt cells / resistance of clone compared with wt cells, value in parentheses / apoptosis, drug alone: 18 h; for apoptosis, drug after DHMEQ pre-treatment: DHMEQ 20 μg/ml 2 h, then highest drug concentration 18 h; for apoptosis, drug alone: highest drug concentration
Protocol: as §1, §2

[4] = system: Ramos-RR1; assay: DNA fragmentation (PI) apoptosis assay, Ramos-RR1; details: Ramos-RR1; for resistance of clone compared with wt cells / resistance of clone compared with wt cells, value in parentheses / apoptosis, drug alone: 18 h; for apoptosis, drug after DHMEQ pre-treatment: DHMEQ 20 μg/ml 2 h, then highest drug concentration 18 h; for apoptosis, drug alone: highest drug concentration
Protocol: as §1, §2

[5] = system: Ramos wt cells; assay: DNA fragmentation (PI) apoptosis assay, Ramos wt; assay type: cell-based, human
[6] = system: Daudi wt cells; assay: DNA fragmentation (PI) apoptosis assay, Daudi wt; assay type: cell-based, human; details: 50 μg/ml anti-hIg + 20 μg/ml rituximab, 24 h
[7] = system: 2F7, Ramos and Daudi wild type and RR clones; assay: TRAIL-mediated apoptosis in B-NHL cell lines and RR clones (DNA fragmentation); assay type: cell-based, human; details: wild type and RR1 cells; TRAIL 1-250 ng/ml, 18 h
Text: Patients with B-NHL respond initially to conventional chemotherapy and/or to immunotherapy with rituximab (alone or in combination with chemotherapy). However, patients develop resistance to these modalities and novel approaches are needed. TRAIL is a cytotoxic molecule that exerts selective anti-tumor cytotoxic activity with minimal toxicity to normal tissues. Further, TRAIL or agonist monoclonal antibody (mAb) to TRAIL receptors, DR4 and DR5, are currently being tested clinically. The present study investigated the sensitivity of B-NHL cell lines to TRAIL-mediated apoptosis using the AIDS-related NHL (ARL) B-cell line, 2F7, and the B-NHL cell lines, Ramos and Daudi. Also, to recapitulate various aspects of acquired rituximab-resistance, we have generated rituximab-resistant (RR) clones from the parental wild type (wt) cells. […] We then examined means to reverse […] resistance. We and others have reported that inhibition of NFκB activity can sensitize TRAIL-resistant tumor cells to TRAIL-induced apoptosis. […] Both the rituximab-sensitive and rituximab-resistant tumor cells were sensitized by these inhibitors, though higher concentrations were required for sensitization of the RR clones. […] Based on the findings, patients with resistant B-NHL can be treated with combination of TRAIL/anti-DR4 or DR5 mAb and NFκB inhibitors. Alternatively, these patients can be treated with agents that up-regulate TRAIL expression on host effectors (e.g., T cells, NK cells) in combination with NFκB inhibitors.

| Molecule | resistance of clone compared with wt cells [3] | resistance of clone compared with wt cells, value in parentheses [3] | apoptosis, drug after DHMEQ pre-treatment [3] | apoptosis, drug alone [3] | resistance of clone compared with wt cells [4] | resistance of clone compared with wt cells, value in parentheses [4] | apoptosis, drug after DHMEQ pre-treatment [4] | apoptosis, drug alone [4] | other results |
| --- | --- | --- | --- | --- | --- | --- | --- | --- | --- |
| C[S+]([O-])c1ccc(-c2nc(-c3ccncc3)c(-c3ccc(F)cc3)[nH]2)cc1 (stereo not drawn) [SB 203580] | – | – | – | – | – | – | – | – | sensitization of RR clones to various chemotherapeutic drugs [1]: sensitized |
| N#CC(=C(/N)Sc1ccccc1N)/C(C#N)=C(/N)Sc1ccccc1N [UO126] | – | – | – | – | – | – | – | – | sensitization to drug-induced apoptosis [2]: also sensitize the cells |
| COc1cc([C@@H]2c3cc4c(cc3[C@@H](O[C@@H]3O[C@@H]5CO[C@@H](C)O[C@H]5[C@H](O)[C@H]3O)[C@H]3COC(=O)[C@H]23)OCO4)cc(OC)c1O [VP-16] | 2.97 folds | 167% | 32.0±2.2% | 11.8±0.9% | 1.8 folds | 145% | 53.0±2.6% | 10.3±1.1% | – |
| CC(=O)O[C@H]1C(=O)[C@@]2(C)[C@H]([C@H](OC(=O)c3ccccc3)[C@]3(O)C[C@H](OC(=O)[C@H](O)[C@@H](NC(=O)c4ccccc4)c4ccccc4)C(C)=C1C3(C)C)[C@]1(OC(C)=O)CO[C@@H]1C[C@@H]2O [paclitaxel] | 1.63 folds | 139% | 42.0±1.9% | 14.9±3.2% | 1.54 folds | 136% | 46.5±2.3% | 20.4±3.0% | apoptosis, paclitaxel alone ([5]; wt Ramos, paclitaxel 10 nM 18 h): 13.6±1.3%; apoptosis, paclitaxel alone ([4]; paclitaxel 10 nM 18 h): 8.42±2.1% |
| CC[C@]1(O)C[C@H]2CN(CCc3c([nH]c4ccccc34)[C@@](C(=O)OC)(c3cc4c(cc3OC)N(C=O)[C@H]3[C@@](O)(C(=O)OC)[C@H](OC(C)=O)[C@]5(CC)C=CCN6CC[C@]43[C@@H]65)C2)C1 [vincristine] | 1.66 folds | 140% | 36.6±2.3% | 14.2±1.7% | 1.42 folds | 130% | 53.5±2.2% | 15.3±1.1% | – |
| cross-linked rituximab: 50 μg/ml anti-human immunoglobulin (hIg)+20 μg/ml rituximab | – | – | – | – | – | – | – | – | apoptosis ([5]; Ramos wt, 50 μg/ml anti-hIg + 20 μg/ml rituximab, 24 h): 29.2±2.4%; apoptosis [6]: 32.8±2.1%; higher threshold to cross-linked rituximab-mediated apoptosis vs wt [3]: 2.56 folds; higher threshold to cross-linked rituximab-mediated apoptosis vs wt [4]: 2.86 folds |
| B1 | – | – | – | – | – | – | – | – | sensitivity to TRAIL-mediated apoptosis [7]: resistant |
